Reference: US6239107A, “Conjugates of lipophilic moieties and fragments of vasoactive intestinal peptide (VIP)” (Yeda Research & Development Co., Ltd., priority 1996, dated 2001)
Non-standard residues stand in square brackets, D forms with d. Residues, ends and D or L forms follow the SMILES beside them. *: point of attachment. Stearoyl = CCCCCCCCCCCCCCCCCC(=O)*; Lauroyl = CCCCCCCCCCCC(=O)*

Assays:
[1] = Biodistribution to brain after intranasal application of radioiodinated conjugate; assay type: in vivo, rat; conditions: thirty minutes after application, FIG. 15
Experimental: St-Lys-Lys-Tyr-Leu-NH2 (SEQ ID NO:6) was radioiodinated by using the chloramine T methods as described in Gozes et al., Endocrinology, 134:2121-2125 (1994) and about 7.8×10^6 cpm/2 μl 5% Sefsol™, 20% isopropanol/rat were applied intranasally to 250-300 g rats. Animals were sacrificed 30 minutes following drug administration and the frontal cortex was removed, weighed and counted for radioactivity in a gamma counter. Radioactive tissue samples (containing 1400 cpm/gram sample) were thereafter homogenized and subjected to centrifugation (5,400 g for 25 min.). Supernatants were then subjected to HPLC analysis against St-Lys-Lys-Tyr-Leu-NH2 (SEQ ID NO:6) as a marker (eluting using an acetonitrile gradient at fraction 25). Samples were monitored for radioactivity in a gamma counter.

[2] = same amounts of radiolabeled conjugate; Gozes et al., Endocrinology 134:2121-2125 (1994); cited from earlier work
[3] = test system: Apolipoprotein E-deficient newborn mice; assay: Acquisition of developmental milestones in a model for mental retardation; assay type: in vivo; conditions: ApoE deficient newborn mice, s.c. injection
Experimental: It has recently been discovered that mice deficient in apolipoprotein E (ApoE) (Plump et al., Cell, 71:343-363 (1992)) are retarded in their acquisition of developmental milestones.
8 newborn normal mice were injected (s.c. 1.2 μg 120 μu) with St-Lys-Lys-Tyr-Leu-NH2 or with saline. 8 ApoE deficient newborn mice were treated similarly.

[4] = test system: male rats (Wistar) injected i.c.v. with the cholinergic blocker AF64A; conditions: rat, in vivo
Experimental: In vivo Model for Cholinergic Inhibition. 18 Male rats (Wistar, 250-300 g) were injected intracerebroventricularly (i.c.v.) at a rate of 0.21 μl/min., using plastic tubing (PE-20) attached to 25G needle; controls received an injection of saline 2 μl/side, experimental animals received injections of the cholinergic blocker (ethylcholine aziridium) AF64A (3 nmol/2 μl/side).
Drug treatment was initiated 7-10 days after AF64A injection. Animals were divided into two equal groups. Test group received daily nasal administration of St-Lys-Lys-Tyr-Leu-NH2 (SEQ ID NO:6) dissolved in 10% Sefsol™ and 40% isopropanol at a concentration of 10 μg/40 μl (20 μl administered through each nostril). […]
Rats were placed in a circular pool, 1.26 m in diameter, 0.2 m deep, equipped with a clear plexiglas column, with a 13.3 cm platform reaching just below the surface of the water (22-24° C). […] The latency of reaching the platform was recorded for each rat (in seconds) and the changes over days of training were graphed, which reflect learning and memory.
FIG. 3 depicts the effects of St-Lys-Lys-Tyr-D-Ala-NH2 (indicated KKYO in the figure) on learning and memory in the Alzheimer's in vivo test (AF64A-cholinotoxicity test) as described above. […] Following this test the platform is placed back in the water pool, but this time it is visible to the swimming rat and the time required to reach it is measured. […]

[5] = test system: rat cerebral cortical cell cultures (neurons) treated with β-amyloid peptide (amino acids 25-35); assay: Neuronal survival assay, protection against β-amyloid toxicity; assay type: cell-based; conditions: 5 days
Experimental: β-Amyloid peptide is known to be involved in Alzheimer's disease and is a toxic substance to neurons grown in culture (Pike et al., J. of Nezarosci., 13(4), 1676-1687 (1993); Yankner et al., Science, 250:279-282 (1990); Gozes et. al., Proc. Natl. Acad. Sci. USA, 93:[…] (1996)).
Rat cerebral cortical cell cultures were prepared by a slight modification of the techniques described by Forsythe and Westbrook (J. Physiol. Lord. 365:515, (1988)), in which cerebral cortex was used instead of hippocampus and newborn rats were utilized instead of E16 mice. Cerebral cortical cells (1.5-15×10^5 cells/35 mm dish) were plated on confluent cerebral cortical astrocyte feeder cultures as described (Gozes et al., J. Pharmacol Erp. Therap., 257:959-966 (1991)). The culture medium was DMEM-(Dulbeco Modified Eagle Medium) containing 5% horse serum and N3 [media supplement containing a hormone cocktail, according to (Romijn et al., Brain Res., 254:(4),583-589 (1981))]. After eight days growth in vitro, the cultures were given a complete change of medium and then were treated with the β-amyloid peptide (amino acids 25-35) for 5 days.
The β-amyloid peptide fragment was dissolved in water to a finalconcentration of 2.5 mM. […] Neurons were counted without knowledge of type of treatment as before. […]

CCCCCCCCCCCCCCCCCC(=O)N[C@@H](CCCCN)C(=O)N[C@@H](CCCCN)C(=O)N[C@@H](Cc1ccc(O)cc1)C(=O)N[C@@H](CC(C)C)C(N)=O [St-Lys-Lys-Tyr-Leu-NH2] (Stearoyl-KKYL-NH2)
intact conjugate in brain extract by HPLC [1]: could be observed in the brain

St-Nle^17 -VIP-NH2
radioactivity obtained in the intestine [2]: 3700 cpm/g
forelimb placing behavior acquisition ([3]; versus untreated ApoE deficient mice, FIGS. 10 and 11): improved their placing acquisition essentially to the level of control
cliff avoidance acquisition ([3]; FIGS. 12 and 13): even better cliff avoidance acquisition than normal controls or similar cliff avoidance behavior to control

CCCCCCCCCCCCCCCCCC(=O)N[C@@H](CCCCN)C(=O)N[C@@H](CCCCN)C(=O)N[C@@H](Cc1ccc(O)cc1)C(=O)N[C@H](C)C(N)=O [St-Lys-Lys-Tyr-D-Ala-NH2] (Stearoyl-KKY[dA]-NH2)
time required to reach the visible platform (possible motor deficits) [4]: no differences between the groups

CCCCCCCCCCCC(=O)N[C@@H](CCCCN)C(=O)N[C@@H](CCCCN)C(=O)N[C@@H](Cc1ccc(O)cc1)C(=O)N[C@@H](CC(C)C)C(N)=O [Lau-Lys-Lys-Tyr-Leu-NH2] (Lauroyl-KKYL-NH2)
Active concentration (M) ([5]; added together with 25 μM β-amyloid peptide (25-35), NSE-stained neuron counts): 10^-11 -10^-10 M
Neuronal survival (%) ([5]; at the active concentration, with 25 μM β-amyloid peptide (25-35), as compared to control): 83-84%
